# Active and inactive are the calls of the source. The rule behind the calls is not given here.
# Assays:
# [1] = tested on: Mus musculus; assay: Inhibition of CCl4-induced ferroptosis in acute liver injury C57BL/6 mouse model assessed as decrease in IL-6 expression in liver at 10 to 30 mg/kg, ip pretreated with compound for 3 hrs followed by CCl4 induction and measured after 12 to 24 hrs by q-PCR analysis; type: functional, organism-based; details: dose 10-30 mg/kg, time 15-27 hrs
# [2] = tested on: AML12; assay: Protection against iFSP1-induced ferroptosis in mouse AML12 cells assessed as attenuation of Fe2+ level by fluorescence imaging analysis; type: functional, cell-based
# [3] = tested on: Mus musculus; assay: Inhibition of CCl4-induced ferroptosis in acute liver injury C57BL/6 mouse model assessed as inhibition of ALT level at 10 to 30 mg/kg, ip pretreated with compound for 3 hrs followed by CCl4 induction and measured after 12 to 24 hrs; type: functional, organism-based; details: dose 10-30 mg/kg, time 15-27 hrs
# [4] = tested on: Mus musculus; assay: Inhibition of CCl4-induced ferroptosis in acute liver injury C57BL/6 mouse model assessed as downregulation of FTH1 level at 10 to 30 mg/kg, ip pretreated with compound for 3 hrs followed by CCl4 induction and measured after 12 to 24 hrs by Western blot analysis; type: functional, organism-based; details: dose 10-30 mg/kg, time 15-27 hrs
# [5] = tested on: AML12; assay: Protection against CCl4-induced ferroptosis in mouse AML12 cells assessed as reduction in ROS production at 200 to 1000 nM measured for 36 hrs; type: functional, cell-based; details: dose 200-1000 nM
# [6] = tested on: AML12; assay: Inhibition of Ptgs2 mRNA expression in mouse AML12 cells measured for 36 hrs by qRT-PCR analysis; type: functional, cell-based; details: dose <= 10.0 µM
# [7] = tested on: AML12; assay: Protection against Erastin-induced ferroptosis in mouse AML12 cells assessed as increase in cell viability at 200 nM measured for 48 hrs by cell counting-lite 2.0 analysis; type: functional, cell-based
# [8] = tested on: Mus musculus; assay: Inhibition of CCl4-induced ferroptosis in acute liver injury C57BL/6 mouse model assessed as downregulation of FTL level at 10 to 30 mg/kg, ip pretreated with compound for 3 hrs followed by CCl4 induction and measured after 12 to 24 hrs by Western blot analysis; type: functional, organism-based; details: dose 10-30 mg/kg, time 15-27 hrs
# [9] = tested on: AML12; assay: Downregulation of Free Fe2+ level in mouse AML12 cells by FerroOrange dye based laser scanning confocal microscopic analysis; type: functional, cell-based
# [10] = tested on: Mus musculus; assay: Inhibition of CCl4-induced ferroptosis in acute liver injury C57BL/6 mouse model assessed as reduction in necrosis at 10 to 30 mg/kg, ip pretreated with compound for 3 hrs followed by CCl4 induction and measured after 12 to 24 hrs by H and E staining based analysis; type: functional, organism-based; details: dose 10-30 mg/kg, time 15-27 hrs
# [11] = tested on: Mus musculus; assay: Inhibition of CCl4-induced ferroptosis in acute liver injury C57BL/6 mouse model assessed as attenuation of iron deposition in liver at 10 to 30 mg/kg, ip pretreated with compound for 3 hrs followed by CCl4 induction and measured after 12 to 24 hrs by perls blue staining based analysis; type: functional, organism-based; details: dose 10-30 mg/kg, time 15-27 hrs
# [12] = tested on: Mus musculus; assay: Inhibition of CCl4-induced ferroptosis in acute liver injury C57BL/6 mouse model assessed as reduction in IL-1beta level in serum at 10 to 30 mg/kg, ip pretreated with compound for 3 hrs followed by CCl4 induction and measured after 12 to 24 hrs by ELISA analysis; type: functional, organism-based; details: dose 10-30 mg/kg, time 15-27 hrs
# [13] = tested on: AML12; assay: Upregulation of FTH1 level in mouse AML12 cells incubated for 24 hrs by Western blot analysis; type: functional, cell-based; details: dose <= 10.0 µM
# [14] = tested on: Mus musculus; assay: Inhibition of CCl4-induced ferroptosis in acute liver injury C57BL/6 mouse model assessed as decrease in TNF-alpha expression in liver at 10 to 30 mg/kg, ip pretreated with compound for 3 hrs followed by CCl4 induction and measured after 12 to 24 hrs by q-PCR analysis; type: functional, organism-based; details: dose 10-30 mg/kg, time 15-27 hrs
# [15] = tested on: AML12; assay: Downregulation of lipid hydroperoxide level in mouse AML12 cells at 200 nM measured for 36 hrs; type: functional, cell-based
# [16] = tested on: AML12; assay: Protection against iFSP1-induced ferroptosis in mouse AML12 cells assessed as reduction in lipid peroxidation level at 200 nM measured for 48 hrs; type: functional, cell-based
# [17] = tested on: AML12; assay: Protection against FINO2-induced ferroptosis in mouse AML12 cells assessed as increase in cell viability at 200 nM measured for 48 hrs by cell counting-lite 2.0 analysis; type: functional, cell-based
# [18] = tested on: Mus musculus; assay: Inhibition of CCl4-induced ferroptosis in acute liver injury C57BL/6 mouse model assessed as restoration of liver color fading at 10 to 30 mg/kg, ip pretreated with compound for 3 hrs followed by CCl4 induction and measured after 12 to 24 hrs; type: functional, organism-based; details: dose 10-30 mg/kg, time 15-27 hrs
# [19] = tested on: AML12; assay: Protection against CCl4-induced ferroptosis in mouse AML12 cells assessed as reduction in lipid peroxidation level at 200 to 1000 nM; type: functional, cell-based; details: dose 200-1000 nM
# [20] = tested on: Mus musculus; assay: Inhibition of CCl4-induced ferroptosis in acute liver injury C57BL/6 mouse model assessed as reduction in TNF-alpha level in serum at 10 to 30 mg/kg, ip pretreated with compound for 3 hrs followed by CCl4 induction and measured after 12 to 24 hrs by ELISA analysis; type: functional, organism-based; details: dose 10-30 mg/kg, time 15-27 hrs
# [21] = tested on: AML12; assay: Protection against Erastin-induced ferroptosis in mouse AML12 cells assessed as attenuation of Fe2+ level by fluorescence imaging analysis; type: functional, cell-based
# [22] = biological target: von Hippel-Lindau disease tumor suppressor/Nuclear receptor coactivator 4 (Mus musculus, UniProt P40338+Q5U4H9); assay: PROTAC activity at NCOA4/VHL in mouse AML12 cells assessed as reduction in intracellular NCOA4 level incubated for 24 hrs by Western blot analysis; type: cell-based
# Chain of von Hippel-Lindau disease tumor suppressor/Nuclear receptor coactivator 4 (Mus musculus, UniProt P40338+Q5U4H9) (P40338 whole entry): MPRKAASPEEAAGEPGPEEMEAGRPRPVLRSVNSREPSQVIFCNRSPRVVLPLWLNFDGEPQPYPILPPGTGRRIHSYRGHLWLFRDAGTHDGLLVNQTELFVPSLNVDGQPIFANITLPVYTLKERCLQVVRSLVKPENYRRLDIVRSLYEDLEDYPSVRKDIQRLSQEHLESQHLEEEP
# Chain of von Hippel-Lindau disease tumor suppressor/Nuclear receptor coactivator 4 (Mus musculus, UniProt P40338+Q5U4H9) (Q5U4H9 whole entry): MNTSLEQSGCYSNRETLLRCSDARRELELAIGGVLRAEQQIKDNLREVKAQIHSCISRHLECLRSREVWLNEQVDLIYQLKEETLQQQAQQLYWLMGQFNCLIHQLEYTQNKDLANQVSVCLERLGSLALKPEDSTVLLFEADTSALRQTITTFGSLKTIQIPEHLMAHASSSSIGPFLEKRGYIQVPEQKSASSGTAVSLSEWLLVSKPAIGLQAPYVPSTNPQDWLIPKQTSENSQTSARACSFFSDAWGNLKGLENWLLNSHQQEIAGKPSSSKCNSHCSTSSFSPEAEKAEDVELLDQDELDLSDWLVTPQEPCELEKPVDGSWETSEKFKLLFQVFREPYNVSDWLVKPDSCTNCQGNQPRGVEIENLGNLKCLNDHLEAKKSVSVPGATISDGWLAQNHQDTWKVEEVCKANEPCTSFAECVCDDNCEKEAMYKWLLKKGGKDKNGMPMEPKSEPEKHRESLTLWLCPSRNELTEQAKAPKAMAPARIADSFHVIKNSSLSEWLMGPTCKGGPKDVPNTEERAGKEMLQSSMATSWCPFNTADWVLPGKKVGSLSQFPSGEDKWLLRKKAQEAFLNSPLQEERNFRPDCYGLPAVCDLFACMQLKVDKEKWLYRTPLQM
# [23] = biological target: T1, von Hippel-Lindau disease tumor suppressor/Nuclear receptor coactivator 4 (Homo sapiens, UniProt P40337+Q13772); assay: PROTAC activity at NCOA4/VHL in human HeLa cells assessed as induction of NCOA4 degradation at 50 nM measured 36 to 48 hrs by Western blot analysis; type: cell-based; details: time 36-48 hrs
# Target sequence in this assay (P40337 whole entry, looked up): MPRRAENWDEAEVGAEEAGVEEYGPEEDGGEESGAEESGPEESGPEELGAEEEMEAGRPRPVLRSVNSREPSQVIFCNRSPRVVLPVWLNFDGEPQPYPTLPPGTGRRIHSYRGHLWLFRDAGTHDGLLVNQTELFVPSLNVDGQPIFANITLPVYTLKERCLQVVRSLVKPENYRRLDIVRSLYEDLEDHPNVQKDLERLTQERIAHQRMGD
# Target sequence in this assay (Q13772 whole entry, looked up): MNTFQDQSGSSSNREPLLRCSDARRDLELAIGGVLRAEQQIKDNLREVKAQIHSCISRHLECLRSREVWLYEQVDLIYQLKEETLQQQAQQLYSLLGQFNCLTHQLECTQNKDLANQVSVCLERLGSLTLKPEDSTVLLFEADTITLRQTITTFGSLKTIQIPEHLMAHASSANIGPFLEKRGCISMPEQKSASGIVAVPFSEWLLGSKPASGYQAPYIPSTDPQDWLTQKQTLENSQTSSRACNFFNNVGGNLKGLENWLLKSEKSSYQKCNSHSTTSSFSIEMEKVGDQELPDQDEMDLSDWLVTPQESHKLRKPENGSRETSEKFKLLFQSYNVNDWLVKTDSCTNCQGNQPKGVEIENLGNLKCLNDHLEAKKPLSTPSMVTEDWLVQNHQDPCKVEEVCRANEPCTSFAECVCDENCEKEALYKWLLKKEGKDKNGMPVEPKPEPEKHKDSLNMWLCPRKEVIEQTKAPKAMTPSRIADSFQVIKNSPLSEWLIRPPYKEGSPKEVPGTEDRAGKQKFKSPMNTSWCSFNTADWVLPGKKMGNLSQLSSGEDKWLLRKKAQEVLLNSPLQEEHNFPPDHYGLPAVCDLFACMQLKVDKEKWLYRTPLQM
# [24] = tested on: Mus musculus; assay: Inhibition of CCl4-induced ferroptosis in acute liver injury C57BL/6 mouse model assessed as reduction in MDA content in liver at 10 to 30 mg/kg, ip pretreated with compound for 3 hrs followed by CCl4 induction and measured after 12 to 24 hrs; type: functional, organism-based; details: dose 10-30 mg/kg, time 15-27 hrs
# [25] = biological target: von Hippel-Lindau disease tumor suppressor/Nuclear receptor coactivator 4 (Mus musculus) (UniProt P40338+Q5U4H9); assay: PROTAC activity at NCOA4/VHL in mouse AML12 cells assessed as effect on NCOA4 mRNA level at 0.12 to 10 uM incubated for 24 hrs by qRT-PCR analysis; type: cell-based; details: dose 0.12-10 µM
# Chain of von Hippel-Lindau disease tumor suppressor/Nuclear receptor coactivator 4 (Mus musculus) (P40338 whole entry, looked up): as the sequence (P40338 whole entry) above
# Chain of von Hippel-Lindau disease tumor suppressor/Nuclear receptor coactivator 4 (Mus musculus) (Q5U4H9 whole entry, looked up): as the sequence (Q5U4H9 whole entry) above
# [26] = biological target: T1, von Hippel-Lindau disease tumor suppressor/Nuclear receptor coactivator 4; assay: PROTAC activity at NCOA4/VHL in human HeLa cells assessed as induction of NCOA4 degradation measured for 24 hrs by Western blot analysis; type: cell-based
# Target sequence in this assay (P40337 whole entry): as the sequence (P40337 whole entry, looked up) above
# Target sequence in this assay (Q13772 whole entry): as the sequence (Q13772 whole entry, looked up) above
# [27] = tested on: Mus musculus; assay: Inhibition of CCl4-induced ferroptosis in acute liver injury C57BL/6 mouse model assessed as downregulation of NCOA4 level at 10 to 30 mg/kg, ip pretreated with compound for 3 hrs followed by CCl4 induction and measured after 12 to 24 hrs by Western blot analysis; type: functional, organism-based; details: dose 10-30 mg/kg, time 15-27 hrs
compound,measurement,setting,value
Cc1ncsc1-c1ccc(CNC(=O)[C@@H]2C[C@@H](O)CN2C(=O)[C@H](NC(=O)CCCC(=O)NCCOCCOCCOCCOc2ccc3c(c2)CCN(c2cccc(-c4nc5ccc(N6CCN(C)CC6)cc5[nH]4)c2)C3)C(C)(C)C)cc1,inhibition,[1],Active
same,Activity,[2],Active
same,inhibition,[3],Active
same,inhibition,[4],Active
same,Activity,[5],Active
same,inhibition,[6],Dose-Dependent Effect
same,Activity,[7],Active
same,inhibition,[8],Active
same,Activity,[9],Active
same,inhibition,[10],Active
same,inhibition,[11],Active
same,inhibition,[12],Active
same,Activity,[13],Dose-Dependent Effect
same,inhibition,[14],Active
same,Activity,[15],Active
same,Activity,[16],Active
same,Activity,[17],Active
same,inhibition,[18],Active
same,Activity,[19],Active
same,inhibition,[20],Active
same,Activity,[21],Active
same,DC50,[22],202 nM
same,Activity,[23],Active
same,inhibition,[24],Active
same,Activity,[25],Active
same,DC50,[26],3 nM
same,inhibition,[27],Active

# — ChEMBL document CHEMBL5550205, “Discovery of a NCOA4 Degrader for Labile Iron-Dependent Ferroptosis Inhibition” (J Med Chem, 2024)
